What was measured:
Format in all cases: in vivo
[1] = system: nutsedge, yellow (yellow nutsedge, Cyperus esculentus); test: Test C pre-/postemergence: nutsedge, yellow
How it was run: (§1)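 Visual injury scored 0–100 (100 = complete control) against untreated controls after 13–15 greenhouse days. Surfactant-containing solvent formulations applied either to soil after sowing (loam/sand) or over 1- to 4-leaf plants, 2–18 cm tall.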

[2] = system: large crabgrass (Digitaria sanguinalis); test: Test C pre-/postemergence: large crabgrass
How it was run: as §1

[3] = system: pigweed (Amaranthus retroflexus); test: Test C pre-/postemergence: pigweed
How it was run: as §1

[4] = system: johnsongrass (Sorghum halepense); test: Test C pre-/postemergence: johnsongrass
How it was run: as §1

[5] = system: morningglory (Ipomoea spp.); test: Test A pre-/postemergence: morningglory; conditions: for Morningglory plant response rating: Postemergence; for Plant response rating, Morningglory: Preemergence
How it was run: (§2)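 Rating scale 0–100 (100 = complete control), visual, ~10 days after application in the greenhouse. Applications: preemergence directed soil spray; postemergence at 1–2 leaves.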

kochia (Kochia scoparia) = test: Test C pre-/postemergence: kochia
How it was run: as §1

[6] = system: winter wheat (Triticum aestivum); test: Test C pre-/postemergence: winter wheat
How it was run: as §1

[7] = system: ryegrass, Italian (Italian ryegrass, Lolium multiflorum); test: Test C pre-/postemergence: ryegrass, Italian
How it was run: as §1

[8] = system: barnyardgrass (Echinochloa crus-galli); test: Test A pre-/postemergence: barnyardgrass; conditions: for Barnyardgrass plant response rating: Postemergence; for Plant response rating, Barnyardgrass: Preemergence
How it was run: as §2

[9] = system: galium (catchweed bedstraw, Galium aparine); test: Test C pre-/postemergence: galium
How it was run: as §1

corn (Zea mays) = test: Test A pre-/postemergence: corn; conditions: for Corn plant response rating: Postemergence; for Plant response rating, Corn: Preemergence
How it was run: as §2

[10] = Postemergence, 31 g ai/ha, scale 0 to 100 (0 no effect, 100 complete control)
[11] = Postemergence, 62 g ai/ha, scale 0 to 100 (0 no effect, 100 complete control)
[12] = Postemergence, 125 g ai/ha, scale 0 to 100, 0 no effect, 100 complete control
[13] = Postemergence, 250 g ai/ha, scale 0 to 100
[14] = Preemergence, 31 g ai/ha, scale of 0 to 100, 0 is no effect, 100 is complete control
[15] = Preemergence, 62 g ai/ha, scale of 0 to 100, 0 is no effect, 100 is complete control
[16] = Preemergence, 125 g ai/ha, scale 0 to 100, 0 no effect, 100 complete control
[17] = Preemergence, 250 g ai/ha, scale 0 to 100, 0 no effect, 100 complete control
[18] = 125 g ai/ha, 0 to 100 scale, 0 is no effect, 100 is complete control
[19] = 500 g ai/ha, visual rating on 0 to 100 scale (0 no effect, 100 complete control), approximately ten days
[20] = 125 g ai/ha, 0 to 100 scale (0 no effect, 100 complete control)
[21] = 500 g ai/ha, 0 to 100 scale, 0 is no effect, 100 is complete control

Cc1nn(-c2ccc(C(F)(F)F)cn2)nc1Oc1ccnc(C(F)(F)F)c1 [Compound 23]
Plant response rating, Nutsedge, Yellow [1, 10]: 10
Plant response rating, Nutsedge, Yellow [1, 11]: 10
Plant response rating, Nutsedge, Yellow [1, 12]: 10
Plant response rating, Nutsedge, Yellow [1, 13]: 10
Plant response rating, Nutsedge, Yellow [1, 14]: 5
Plant response rating, Nutsedge, Yellow [1, 15]: 10
Plant response rating, Nutsedge, Yellow [1, 16]: 35
Plant response rating, Nutsedge, Yellow [1, 17]: 55
Plant response rating, Crabgrass, Large [2, 10]: 10
Plant response rating, Crabgrass, Large [2, 11]: 15
Plant response rating, Crabgrass, Large [2, 12]: 25
Plant response rating, Crabgrass, Large [2, 13]: 35
Plant response rating, Crabgrass, Large [2, 14]: 100
Plant response rating, Crabgrass, Large [2, 15]: 100
Plant response rating, Crabgrass, Large [2, 16]: 100
Plant response rating, Crabgrass, Large [2, 17]: 100
Plant response rating, Pigweed [3, 10]: 70
Plant response rating, Pigweed [3, 12]: 80
Plant response rating, Pigweed [3, 13]: 95
Plant response rating, Pigweed [3, 14]: 100
Plant response rating, Pigweed [3, 15]: 100
Plant response rating, Pigweed [3, 16]: 100
Plant response rating, Pigweed [3, 17]: 100
Plant response rating, Johnsongrass [4, 10]: 5
Plant response rating, Johnsongrass [4, 11]: 10
Plant response rating, Johnsongrass [4, 12]: 10
Plant response rating, Johnsongrass [4, 13]: 20
Plant response rating, Johnsongrass [4, 14]: 55
Plant response rating, Johnsongrass [4, 15]: 75
Plant response rating, Johnsongrass [4, 16]: 95
Plant response rating, Johnsongrass [4, 17]: 98
Morningglory plant response rating [5, 18]: 90
Morningglory plant response rating [5, 19]: 100
Plant response rating, Morningglory [5, 20]: 80
Plant response rating, Morningglory [5, 21]: 80
Plant response rating, Kochia (kochia (Kochia scoparia); [10]): 65
Plant response rating, Kochia (kochia (Kochia scoparia); [11]): 75
Plant response rating, Kochia (kochia (Kochia scoparia); [12]): 80
Plant response rating, Kochia (kochia (Kochia scoparia); [13]): 85
Plant response rating, Kochia (kochia (Kochia scoparia); [14]): 95
Plant response rating, Kochia (kochia (Kochia scoparia); [15]): 95
Plant response rating, Kochia (kochia (Kochia scoparia); [16]): 95
Plant response rating, Kochia (kochia (Kochia scoparia); [17]): 100
Plant response rating, Wheat [6, 10]: 10
Plant response rating, Wheat [6, 11]: 10
Plant response rating, Wheat [6, 12]: 15
Plant response rating, Wheat [6, 13]: 30
Plant response rating, Wheat [6, 14]: 0
Plant response rating, Wheat [6, 15]: 0
Plant response rating, Wheat [6, 16]: 20
Plant response rating, Wheat [6, 17]: 35
Plant response rating, Ryegrass, Italian [7, 10]: 5
Plant response rating, Ryegrass, Italian [7, 11]: 10
Plant response rating, Ryegrass, Italian [7, 12]: 10
Plant response rating, Ryegrass, Italian [7, 13]: 15
Plant response rating, Ryegrass, Italian [7, 14]: 0
Plant response rating, Ryegrass, Italian [7, 15]: 5
Plant response rating, Ryegrass, Italian [7, 16]: 25
Plant response rating, Ryegrass, Italian [7, 17]: 70
Barnyardgrass plant response rating [8, 18]: 70
Barnyardgrass plant response rating [8, 19]: 90
Plant response rating, Barnyardgrass [8, 20]: 70
Plant response rating, Barnyardgrass [8, 21]: 100
Plant response rating, Galium [9, 10]: 85
Plant response rating, Galium [9, 11]: 85
Plant response rating, Galium [9, 12]: 90
Plant response rating, Galium [9, 13]: 90
Plant response rating, Galium [9, 14]: 80
Plant response rating, Galium [9, 15]: 95
Plant response rating, Galium [9, 16]: 100
Plant response rating, Galium [9, 17]: 100
Corn plant response rating (corn (Zea mays); [18]): 30
Corn plant response rating (corn (Zea mays); [19]): 50
Plant response rating, Corn (corn (Zea mays); [20]): 10
Plant response rating, Corn (corn (Zea mays); [21]): 40

Fc1ccc(-n2nc(Cc3ccnc(C(F)(F)F)c3)c(OC(F)F)n2)cc1 [Compound 25]
Plant response rating, Nutsedge, Yellow [1, 10]: 5
Plant response rating, Nutsedge, Yellow [1, 11]: 5
Plant response rating, Nutsedge, Yellow [1, 12]: 10
Plant response rating, Nutsedge, Yellow [1, 13]: 10
Plant response rating, Nutsedge, Yellow [1, 14]: 0
Plant response rating, Nutsedge, Yellow [1, 15]: 0
Plant response rating, Nutsedge, Yellow [1, 16]: 0
Plant response rating, Nutsedge, Yellow [1, 17]: 0
Plant response rating, Crabgrass, Large [2, 10]: 15
Plant response rating, Crabgrass, Large [2, 11]: 20
Plant response rating, Crabgrass, Large [2, 12]: 40
Plant response rating, Crabgrass, Large [2, 13]: 65
Plant response rating, Crabgrass, Large [2, 14]: 98
Plant response rating, Crabgrass, Large [2, 15]: 100
Plant response rating, Crabgrass, Large [2, 16]: 100
Plant response rating, Crabgrass, Large [2, 17]: 100
Plant response rating, Pigweed [3, 10]: 85
Plant response rating, Pigweed [3, 11]: 95
Plant response rating, Pigweed [3, 12]: 95
Plant response rating, Pigweed [3, 13]: 98
Plant response rating, Pigweed [3, 14]: 100
Plant response rating, Pigweed [3, 15]: 100
Plant response rating, Pigweed [3, 16]: 100
Plant response rating, Pigweed [3, 17]: 100
Plant response rating, Johnsongrass [4, 10]: 5
Plant response rating, Johnsongrass [4, 11]: 5
Plant response rating, Johnsongrass [4, 12]: 10
Plant response rating, Johnsongrass [4, 13]: 15
Plant response rating, Johnsongrass [4, 14]: 5
Plant response rating, Johnsongrass [4, 15]: 30
Plant response rating, Johnsongrass [4, 16]: 65
Plant response rating, Johnsongrass [4, 17]: 98
Morningglory plant response rating [5, 18]: 100
Morningglory plant response rating [5, 19]: 100
Plant response rating, Morningglory [5, 20]: 30
Plant response rating, Morningglory [5, 21]: 80
Plant response rating, Kochia (kochia (Kochia scoparia); [10]): 75
Plant response rating, Kochia (kochia (Kochia scoparia); [11]): 80
Plant response rating, Kochia (kochia (Kochia scoparia); [12]): 90
Plant response rating, Kochia (kochia (Kochia scoparia); [13]): 90
Plant response rating, Kochia (kochia (Kochia scoparia); [14]): 10
Plant response rating, Kochia (kochia (Kochia scoparia); [15]): 40
Plant response rating, Kochia (kochia (Kochia scoparia); [16]): 55
Plant response rating, Kochia (kochia (Kochia scoparia); [17]): 85
Plant response rating, Wheat [6, 10]: 10
Plant response rating, Wheat [6, 11]: 20
Plant response rating, Wheat [6, 12]: 30
Plant response rating, Wheat [6, 13]: 30
Plant response rating, Wheat [6, 14]: 0
Plant response rating, Wheat [6, 15]: 5
Plant response rating, Wheat [6, 16]: 10
Plant response rating, Wheat [6, 17]: 35
Plant response rating, Ryegrass, Italian [7, 10]: 5
Plant response rating, Ryegrass, Italian [7, 11]: 5
Plant response rating, Ryegrass, Italian [7, 12]: 5
Plant response rating, Ryegrass, Italian [7, 13]: 5
Plant response rating, Ryegrass, Italian [7, 14]: 5
Plant response rating, Ryegrass, Italian [7, 15]: 35
Plant response rating, Ryegrass, Italian [7, 16]: 45
Plant response rating, Ryegrass, Italian [7, 17]: 90
Barnyardgrass plant response rating [8, 18]: 50
Barnyardgrass plant response rating [8, 19]: 90
Plant response rating, Barnyardgrass [8, 20]: 80
Plant response rating, Barnyardgrass [8, 21]: 90
Plant response rating, Galium [9, 10]: 50
Plant response rating, Galium [9, 11]: 50
Plant response rating, Galium [9, 12]: 55
Plant response rating, Galium [9, 13]: 55
Plant response rating, Galium [9, 14]: 0
Plant response rating, Galium [9, 15]: 15
Plant response rating, Galium [9, 16]: 80
Plant response rating, Galium [9, 17]: 98
Corn plant response rating (corn (Zea mays); [18]): 30
Corn plant response rating (corn (Zea mays); [19]): 30
Plant response rating, Corn (corn (Zea mays); [20]): 10
Plant response rating, Corn (corn (Zea mays); [21]): 30

Reference: patent publication US9302999B2, “Substituted triazoles as herbicides” (E. I. DU PONT DE NEMOURS AND COMPANY, priority 2012, dated 2016)
